Experimental data reported in publication PMC7815396, “Hypoglycemic Effect of Calea urticifolia (Mill.) DC” (Evidence-based Complementary and Alternative Medicine : eCAM, 2021).

Assays:
[1] = molecular target: T1, alpha-glucosidases from rat intestine; assay: p-nitrophenol release at […] nm; format: biochemical; details: 2 mM p-nitrophenyl-alpha-D-glucopyranoside; 0.1 M phosphate pH 6.8; crude intestinal extract
T1 construct: gene Si; crude rat intestinal extract (Sigma I1630); enzymes not separated

[2] = molecular target: T2, alpha-glucosidases from Saccharomyces cerevisiae; assay: p-nitrophenol release at […] nm; format: biochemical; details: 2 mM p-nitrophenyl-alpha-D-glucopyranoside; 0.1 M phosphate pH 6.8
T2 construct: gene MAL12; commercial yeast enzyme (Sigma G5003), native

C[C@H]1O[C@H](O[C@H]2[C@H](O)[C@@H](O)[C@@H](O[C@H]3[C@H](O)[C@@H](O)C(O)O[C@@H]3CO)O[C@@H]2CO)[C@H](O)[C@@H](O)[C@@H]1N[C@H]1C=C(CO)[C@@H](O)[C@H](O)[C@H]1O (some centres unmarked) [Acarbose]
Rat intestine / α-Glucosidase enzymes / IC50 [1]: 18.6 mg/L | S. cerevisiae / α-Glucosidase enzymes / IC50 [2]: 231.9 mg/L
